In patent publication US20190047966A1, “NOVEL COMPOUND AND PHARMACOLOGICALLY ACCEPTABLE SALT THEREOF” (MEIJI SEIKA PHARMA CO., LTD., priority 2016, published 2019) one finds Ki data, which are given here for nine compounds.

Assay [1] deals with T1, human histamine H4 receptor (Homo sapiens, UniProt Q9H3N8).
T1 construct: purchased PerkinElmer Inc; host or cells: CHO-K1
The assay is described as follows: Evaluation of Human H4 Receptor Affinity ([3H]histamine binding). The following applies: inhibition constant Ki, CHO-K1 membrane preparation, read-out: Evaluation of H4 Receptor Affinity. An outline of the steps:
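Radioligand displacement: compound competes with 8.2 nM [3H]histamine at recombinant human H4 receptor in CHO-K1 membranes (Tris-HCl 50 mM pH 7.4, EDTA 1.25 mM; 25 °C, 90 min), with filter-bound radioactivity counted. IC50 was converted to Ki via Cheng-Prusoff (Kd 5.7 nM); 1.0 μM histamine set nonspecific binding.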

Assay [2] addresses human histamine H1 receptor (Homo sapiens, UniProt P35367). The assay is described as follows: Evaluation of Human H1 Receptor Affinity ([3H]pyrilamine binding). The following applies: inhibition constant Ki, CHO-K1 membrane preparation. The arrangement: purchased PerkinElmer Inc; host or cells: CHO-K1. The method in brief: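 Ki values are Cheng-Prusoff conversions of IC50 (Kd 1.1 nM) from radioligand displacement of 1.2 nM [3H]pyrilamine, with 1.0 μM pyrilamine defining nonspecific binding.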

T1 sequence (Q9H3N8 whole entry): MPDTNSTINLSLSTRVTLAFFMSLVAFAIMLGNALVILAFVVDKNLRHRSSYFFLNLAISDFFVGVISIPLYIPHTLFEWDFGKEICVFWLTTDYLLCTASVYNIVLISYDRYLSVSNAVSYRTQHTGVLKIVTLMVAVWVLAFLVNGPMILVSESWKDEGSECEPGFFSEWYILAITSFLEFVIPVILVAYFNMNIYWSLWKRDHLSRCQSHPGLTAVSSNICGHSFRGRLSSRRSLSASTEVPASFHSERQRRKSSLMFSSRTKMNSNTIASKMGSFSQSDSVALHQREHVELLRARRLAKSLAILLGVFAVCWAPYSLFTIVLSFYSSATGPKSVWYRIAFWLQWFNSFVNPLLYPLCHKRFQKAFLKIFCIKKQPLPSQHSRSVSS
human histamine H1 receptor, sequence (P35367 whole entry): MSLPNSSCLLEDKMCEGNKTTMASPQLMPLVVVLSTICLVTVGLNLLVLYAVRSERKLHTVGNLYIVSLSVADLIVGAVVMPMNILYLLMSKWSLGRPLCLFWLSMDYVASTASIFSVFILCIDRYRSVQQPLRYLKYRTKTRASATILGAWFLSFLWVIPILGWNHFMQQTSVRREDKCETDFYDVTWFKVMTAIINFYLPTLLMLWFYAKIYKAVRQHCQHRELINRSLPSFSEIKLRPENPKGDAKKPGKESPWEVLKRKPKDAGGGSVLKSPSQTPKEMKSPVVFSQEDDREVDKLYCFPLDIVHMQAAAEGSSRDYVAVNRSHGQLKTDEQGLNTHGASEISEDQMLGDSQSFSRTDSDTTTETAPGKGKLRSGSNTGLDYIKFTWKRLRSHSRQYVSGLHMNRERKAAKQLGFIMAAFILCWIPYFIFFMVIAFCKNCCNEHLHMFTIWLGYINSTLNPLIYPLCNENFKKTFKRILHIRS

`CC1(C(=O)O)CCC(OCCN2CCN(c3nc(N)nc4c3CCc3cc(OCc5ccc(Cl)cc5)ccc3-4)CC2)CC1` (stereo not drawn) [Example 161, 4-(2-(4-(2-amino-8-((4-chlorobenzyl)oxy)-5,6-dihydrobenzo[h]quinazolin-4-yl)piperazin-1-yl)ethoxy)-1-methylcyclohexane-1-carboxylic acid]: the Ki in assay [1] and in assay [2] was less than 100 nM each time.

As for `CC(C)(C(=O)O)c1ccc(OCCN2CCN(c3nc(N)nc4c3CCc3cc(OCc5ccc(Cl)cc5)ccc3-4)CC2)cc1` [Example 162, 2-(4-(2-(4-(2-amino-8-((4-chlorobenzyl)oxy)-5,6-dihydrobenzo[h]quinazolin-4-yl)piperazin-1-yl)ethoxy)phenyl)-2-methylpropanoic acid], the Ki in assay [1] and in assay [2] was 100 to 500 nM in each case.

In the case of `Nc1nc2c(c(N3CCN(CCOCC4(CCC(=O)O)COC4)CC3)n1)CCc1cc(OCc3ccc(Cl)cc3)ccc1-2` [Example 163, 3-(3-((2-(4-(2-amino-8-((4-chlorobenzyl)oxy)-5,6-dihydrobenzo[h]quinazolin-4-yl)piperazin-1-yl)ethoxy)methyl)oxetan-3-yl)propanoic acid], the Ki in assay [1] and in assay [2] was less than 100 nM each time.

With `CC1(COCCN2CCN(c3nc(N)nc4c3CCc3cc(OCc5ccc(Cl)cc5)ccc3-4)CC2)CCC(C(=O)O)CC1` (stereo not drawn) [Example 164, cis- or trans-4-((2-(4-(2-amino-8-((4-chlorobenzyl)oxy)-5,6-dihydrobenzo[h]quinazolin-4-yl)piperazin-1-yl)ethoxy)methyl)-4-methylcyclohexane-1-carboxylic acid], the Ki in assay [1] and in assay [2] was less than 100 nM each time.

On to `CC1(C(=O)O)CCC(COCCN2CCN(c3nc(N)nc4c3CCc3cc(OCc5ccc(Cl)cc5)ccc3-4)CC2)CC1` (stereo not drawn) [Example 165, trans- or cis-4-((2-(4-(2-amino-8-((4-chlorobenzyl)oxy)-5,6-dihydrobenzo[h]quinazolin-4-yl)piperazin-1-yl)ethoxy)methyl)-1-methylcyclohexane-1-carboxylic acid], for which the Ki in assay [1] and in assay [2] was less than 100 nM each time.

As for `Nc1nc2c(c(N3CCN(CCOCCOCC4(C(=O)O)COC4)CC3)n1)CCc1cc(OCc3ccc(Cl)cc3)ccc1-2` [Example 168, 3-((2-(2-(4-(2-amino-8-((4-chlorobenzyl)oxy)-5,6-dihydrobenzo[h]quinazolin-4-yl)piperazin-1-yl)ethoxy)ethoxy)methyl)oxetane-3-carboxylic acid], the Ki in assay [1] was 100 to 500 nM; in assay [2] it was less than 100 nM.

As for `Nc1nc2c(c(N3CCN(CCOCC4CC(C(=O)O)C4)CC3)n1)CCc1cc(OCc3ccc(Cl)cc3)ccc1-2` (stereo not drawn) [Example 169, cis- or trans-3-((2-(4-(2-amino-8-((4-chlorobenzyl)oxy)-5,6-dihydrobenzo[h]quinazolin-4-yl)piperazin-1-yl)ethoxy)methyl)cyclobutane-1-carboxylic acid], the Ki in assay [1] is 100 to 500 nM; in assay [2], less than 100 nM.

With `Nc1nc2c(c(N3CCN(CCOCC4CC(C(=O)O)C4)CC3)n1)CCc1cc(OCc3ccc(Cl)cc3)ccc1-2` (stereo not drawn) [Example 170, trans- or cis-3-((2-(4-(2-amino-8-((4-chlorobenzyl)oxy)-5,6-dihydrobenzo[h]quinazolin-4-yl)piperazin-1-yl)ethoxy)methyl)cyclobutane-1-carboxylic acid], the Ki in assay [1] and in assay [2] was less than 100 nM throughout.

For `CC(C)(C(=O)O)[C@H]1C[C@@H](OCCN2CCN(c3nc(N)nc4c3CCc3cc(OCc5ccc(Cl)cc5)ccc3-4)CC2)C1` [Example 172, cis-2-(3-(2-(4-(2-amino-8-((4-chlorobenzyl)oxy)-5,6-dihydrobenzo[h]quinazolin-4-yl)piperazin-1-yl)ethoxy)cyclobutyl)-2-methylpropanoic acid], the Ki in assay [1] and in assay [2] was less than 100 nM each time.
